Results reported in US8728442B2, “Method of controlling the growth of microorganisms by a composition containing isolated or in vitro synthesized nitrosoamides” (Bayer CropScience LP, priority 2009, dated 2014).
Converted amounts (≈) assume the structure as drawn. Like-named read-outs stand apart in the source and are kept apart here.

Assays:
[1] = system: Penicillium expansum; assay: Fungicidal activity, fumigation of Penicillium expansum spore plates in sealed 6 L containers; format: cell-based; conditions: Penicillium expansum, 24 h, 24 h exposure, further 48 h incubation, read-out: Amount for 100% inhibition (μg compound/L air)
Experimental: Experiments were conducted to determine the fungicidal activity of several compounds of the invention using Penicillium expansum as the test organism.
Plates of potato dextrose agar were streaked with a standard culture of Penicillium expansum spores (0.1 ml of a 2×10^5 cfu/ml) and placed in sealed plastic containers (nominal volume 6 liters). The containers (Rubbermaid) were fitted with a small fan (Radio Shack 12VDC) in the lids to ensure good distribution of the test compounds. The plates were exposed to different volumes (2.5 μl, 5 μl, 10 μl, 20 μl, 40 μl, 80 μl, or 120 μl) of standard solutions (1.0 to 4.0 mg/ml) of tested compounds in ethanol, under ambient conditions. After exposing for 24 h, the plates were removed and incubated for a further 48 h, at ambient temperature, and then monitored for growth of the test organism by visual observation.
The following tables provide summary results of three separate studies to determine the minimum amounts of the compounds needed to produce 100% inhibition of growth of the test organism. Results are expressed as minimal volumes (μl/6 L) and amounts (μg/L) required to produce 100% inhibition.

[2] = system: Enterobacter cloacae (ATCC 13047); assay: MIC and MBC by Macrodilution Broth Method; format: cell-based
[3] = system: E. coli 0157:H7 (ATCC 43894); assay: MIC and MBC by Macrodilution Broth Method; format: cell-based; conditions: ATCC43894, Escherichia coli 0157:H7
[4] = system: Listeria monocytogenes (ATCC 13932); assay: MIC and MBC by Macrodilution Broth Method; format: cell-based
[5] = system: Proteus mirabilis (ATCC 3559); assay: MIC and MBC by Macrodilution Broth Method; format: cell-based
[6] = system: Klebsiella pneumoniae (ATCC 35657); assay: MIC and MBC by Macrodilution Broth Method; format: cell-based
[7] = system: Legionella pneumophila (ATCC 33152); assay: microbe, parasite or virus in culture; format: cell-based
[8] = system: Shigella dysenteriae (ATCC 12021); assay: MIC and MBC by Macrodilution Broth Method; format: cell-based
[9] = system: Methicillin Resistant Staphylococcus aureus (MRSA) (ATCC 33591); assay: MIC and MBC by Macrodilution Broth Method; format: cell-based
[10] = system: Bacillus cereus (ATCC 10702); assay: MIC and MBC by Macrodilution Broth Method; format: cell-based
[11] = system: Streptococcus pyogenes (ATCC 10096); assay: MIC and MBC by Macrodilution Broth Method; format: cell-based; conditions: ATCC10096, Streptococcus pyrogenes
[12] = system: Corynebacterium renale (ATCC 10848); assay: MIC and MBC by Macrodilution Broth Method; format: cell-based; conditions: ATCC10848, Corynebacterum renale
[13] = system: Clostridium sporogenes (ATCC 11437); assay: MIC and MBC by Macrodilution Broth Method; format: cell-based; conditions: ATCC11437, read-out: MIC concentration (ppm)
[14] = Temperature and pH lability (GC-MS of ethanol eluate); format: physicochemical; conditions: high pH (above pH 7)
Experimental: As shown at a standard GC/MS injection temperature of 250° C., N-methyl N-nitroso isobutyramide is not detected as it most likely has broken down into other compounds. Therefore, this compound has never been previously identified.

[15] = system: Staphylococcus aureus (MRSA) (ATCC 33591); assay: MIC and MBC of Compound 1 and analogs, macrodilution
[16] = system: Pseudomonas aeruginosa PAO1; assay: Lubbock biofilm model: relative ratio of bacterium by qPCR
[17] = system: Enterococcus faecalis V583; assay: as above
[18] = system: Staphylococcus aureus Mu50; assay: as above
[19] = system: Pseudomonas aeruginosa PAO1, Enterococcus faecalis V583 and Staphylococcus aureus Mu50 biofilm; assay: Lubbock chronic wound biofilm model: biofilm formation and dry weight; conditions: biofilm at 24 hours
[20] = 37° C., 16 to 20 hours, read-out: MIC concentration (ppm)
[21] = read-out: MBC concentration (ppm)

SMILES: CC(C)C(=O)N(C)N=O [Compound 1, N-methyl N-nitrosoisobutyramide]
- MIC ([1]; Experiment #1): 0.0045 µg/mL (≈ 0.0346 µM)
- MIC ([1]; Experiment #2): 0.0043 µg/mL (≈ 0.033 µM)
- MIC ([1]; Experiment #3): 0.004 µg/mL (≈ 0.0307 µM)
- MIC ([1]; Experiment #4): 0.0084 µg/mL (≈ 0.0645 µM)
- MIC ([2]; ATCC13047, 37° C., 16 to 20 hours, read-out: MIC concentration (ppm)): 12.5 µg/mL (≈ 96 µM)
- MBC ([2]; ATCC13047, read-out: MBC concentration (ppm)): 12.5 µg/mL (≈ 96 µM)
- MIC [3, 20]: 12.5 µg/mL (≈ 96 µM)
- MBC [3, 21]: 12.5 µg/mL (≈ 96 µM)
- MIC ([4]; ATCC13932, 37° C., 16 to 20 hours, read-out: MIC concentration (ppm)): 3.13 µg/mL (≈ 24 µM)
- MBC ([4]; ATCC13932, read-out: MBC concentration (ppm)): 12.5 µg/mL (≈ 96 µM)
- MIC ([5]; ATCC3559, 37° C., 16 to 20 hours, read-out: MIC concentration (ppm)): 6.25 µg/mL (≈ 48 µM)
- MBC ([5]; ATCC3559, read-out: MBC concentration (ppm)): 12.5 µg/mL (≈ 96 µM)
- MIC ([6]; ATCC35657, 37° C., 16 to 20 hours, read-out: MIC concentration (ppm)): 12.5 µg/mL (≈ 96 µM)
- MBC ([6]; ATCC35657, read-out: MBC concentration (ppm)): 12.5 µg/mL (≈ 96 µM)
- MBC ([7]; ATCC33152, read-out: MBC concentration (ppm)): 25 µg/mL (≈ 192 µM)
- MIC ([7]; ATCC33152, read-out: MIC concentration (ppm)): 6.25 µg/mL (≈ 48 µM)
- MBC ([8]; ATCC12021, read-out: MBC concentration (ppm)): 12.5 µg/mL (≈ 96 µM)
- MIC ([8]; ATCC12021, read-out: MIC concentration (ppm)): 6.25 µg/mL (≈ 48 µM)
- MBC [9, 21]: 12.5 µg/mL (≈ 96 µM)
- MIC ([9]; read-out: MIC concentration (ppm)): 6.25 µg/mL (≈ 48 µM)
- MIC ([10]; ATCC10702, 37° C., 16 to 20 hours, read-out: MIC concentration (ppm)): 6.25 µg/mL (≈ 48 µM)
- MBC ([10]; ATCC10702, read-out: MBC concentration (ppm)): 12.5 µg/mL (≈ 96 µM)
- MIC [11, 20]: 6.25 µg/mL (≈ 48 µM)
- MBC [11, 21]: 6.25 µg/mL (≈ 48 µM)
- MIC [12, 20]: 6.25 µg/mL (≈ 48 µM)
- MBC [12, 21]: 12.5 µg/mL (≈ 96 µM)
- MIC [13]: 25 µg/mL (≈ 192 µM)
- stability to pH [14]: unstable
- MIC ([15]; 19 h): 6.25 µg/mL
- MBC ([15]; 25 h): 12.5 µg/mL
- P. aeruginosa relative ratio in biofilm ([16]; dilution 1:10, 24 hours): 34.3% ± 1.2%
- P. aeruginosa relative ratio in biofilm ([16]; dilution 1:100, 24 hours): 46.7% ± 8.0%
- P. aeruginosa relative ratio in biofilm ([16]; dilution 1:1000, 24 hours): 50.5% ± 8.4%
- P. aeruginosa relative ratio in biofilm ([16]; dilution 1:10000, 24 hours): 20.3% ± 0.9%
- E. faecalis relative ratio in biofilm ([17]; dilution 1:10, 24 hours): 65.5% ± 0.6%
- E. faecalis relative ratio in biofilm ([17]; dilution 1:100, 24 hours): 39.5% ± 1.0%
- E. faecalis relative ratio in biofilm ([17]; dilution 1:1000, 24 hours): 34.4% ± 0.2%
- E. faecalis relative ratio in biofilm ([17]; dilution 1:10000, 24 hours): 32.6% ± 0.3%
- S. aureus relative ratio in biofilm ([18]; dilution 1:10, 24 hours): 0.27% ± 0.0%
- S. aureus relative ratio in biofilm ([18]; dilution 1:100, 24 hours): 13.9% ± 0.2%
- S. aureus relative ratio in biofilm ([18]; dilution 1:1000, 24 hours): 15.2% ± 1.6%
- S. aureus relative ratio in biofilm ([18]; dilution 1:10000, 24 hours): 47.2% ± 1.2%
- dry weight mg ± SD ([19]; dilution 1:10): 21.7 ± 3.2 mg
- dry weight mg ± SD ([19]; dilution 1:100): 59 ± 4.4 mg
- dry weight mg ± SD ([19]; dilution 1:1000): 63 ± 5.3 mg
- dry weight mg ± SD ([19]; dilution 1:10000): 79.7 ± 5.5 mg
